According to patent publication US3931140A, “(H-gly-gly-tyr-ala)^1 -somatostatin” (American Home Products Corporation, priority 1975, dated 1976):

System: growth hormone present in the plasma
Experiment: In vivo growth hormone in plasma of Nembutal-treated rats by radioimmunoassay
Conditions: for growth hormone per milliliter of plasma (average): 500 micrograms per kilogram, blood sampled 15 minutes after administration, p<0.01
Description: The in vivo activity of the heptadecapeptide of this invention was established by injecting Nembutal intraperitoneally into rats weighing between 200 to 250 grams in an amount of 50 milligrams per kilogram body weight. After five minutes, the heptadecapeptide of this invention was administered to the rats in a dose of 500 micrograms per kilogram body weight from a solution made from three milligrams of the heptadecapeptide,1.2 milliliters of water and 4.8 milliliters of polyethylene glycol (PEG 400). The rats blood was sampled 15 minutes after administration of the heptadecapeptide and the amount of growth hormone present in the plasma was determined by radioimmunoassay.

In the case of `C[C@H](NC(=O)[C@H](Cc1ccc(O)cc1)NC(=O)CNC(=O)CN)C(=O)NCC(=O)N[C@H]1CSSC[C@@H](C(=O)O)NC(=O)[C@H](CO)NC(=O)[C@H]([C@@H](C)O)NC(=O)[C@H](Cc2ccccc2)NC(=O)[C@H]([C@@H](C)O)NC(=O)[C@H](CCCCN)NC(=O)[C@H](Cc2c[nH]c3ccccc23)NC(=O)[C@H](Cc2ccccc2)NC(=O)[C@H](Cc2ccccc2)NC(=O)[C@H](CC(N)=O)NC(=O)[C@H](CCCCN)NC1=O` [heptadecapeptide, Glycyl-glycyl-L-tyrosyl-L-alanyl-glycyl-L-cysteinyl-L-lysyl-L-asparaginyl-L-phenylalanyl-L-phenylalanyl-L-tryptophyl-L-lysyl-L-threonyl-L-phenylalanyl-L-threonyl-L-seryl-L-cysteine[6-17 cyclic disulfide]], the “growth hormone per milliliter of plasma (average)” value (another experiment, twelve rats for control and testing, control 66 ± 10) is reported as 21 ± 7 nanograms growth hormone per milliliter of plasma, the “activity in reducing growth hormone concentrations in blood plasma compared with somatostatin” value (comparison with somatostatin, in words) is reported as “exceeds the activity of somatostatin” and the “growth hormone per milliliter of plasma (average)” value (first determination, eight treated rats, Nembutal 50 mg/kg i.p., control 86 ± 15) is reported as 9 ± 4 nanograms growth hormone per milliliter of plasma.
